“Also recorded” adds a separate entry of the source.
Tests used:
[1] = test system: A375Hu-R1 melanoma cell line; test: Anti-proliferative effect of miRNA mimics, MTS assay; format: cell-based, human; conditions: 10 nM mimic, 72 hours after transfection
Experimental: (§1) The anti-proliferative effect of miRNA's in melanoma cell lines was determined with mature miRNA mimics from Ambion. For each cell line optimal growth and transfection conditions were determined prior to the experiment. Cells were plated in a 96-well plate at 3000 cells per well (100 uL) and were grown at 37 C, 5% CO2. Transfection mix (20 uL per well) was made for each miRNA mimic concentration with 0.3 uL (M249, M249-R4) or 0.5 uL (A375Hu, A375Hu-R1, A2058, RPMI-7951) X-TremeGene (Roche) per well (according to manufacturer's instructions) in Optimem (Invitrogen). Cells were transfected 24 hours after plating in triplicate. Medium was replaced 48 hours after transfection with fresh medium.

[2] = test system: A375Hu melanoma cell line; test: as above; format: cell-based, human; conditions: 10 nM mimic, 72 hours after transfection
Experimental: as §1

[3] = test system: RPMI-7951 melanoma cell line; test: as above; format: cell-based; conditions: 10 nM mimic, 72 hours after transfection
Experimental: as §1

[4] = test system: M249-AR (M249-R4) melanoma cell line; test: as above; format: cell-based; conditions: 30 nM mimic, 72 hours after transfection
Experimental: as §1

M249 melanoma cell line = test: as above; format: cell-based; conditions: 5 nM mimic, 72 hours after transfection
Experimental: as §1

A2058 melanoma cell line = test: as above; format: cell-based; conditions: 10 nM mimic, 72 hours after transfection
Experimental: as §1

phospho-ERK1/2 = test: Western immunoblotting of phospho-ERK1/2 protein levels; format: cell-based, human; conditions: A375Hu cells, 72 hrs, Western blot
Experimental: (§2) A375Hu cells were seeded in 6-well plates and transfected with different concentrations (10, 50 and 100 nM) of synthetic hsa-miR-129-5p or BRAF siRNA (100 nM) using RNAiMAX (7.5 μl/well). As control a scrambled miRNA and a non-targeting siRNA pool were included. Proteins were harvested 72 hrs post transfection using RIPA buffer supplemented with HALT™ Phosphatase Inhibitor (Thermo Scientific) and Protease Inhibitor Cocktail (Sigma). Fifteen μg protein was loaded on 7.5% TGX acrylamide gels (Bio-Rad) and subsequently transferred to PVDF membranes. The membranes were blocked in 5% milk in TBS-T and incubated O/N at 4° C. with primary antibodies to bRAF, phosphoERK1/2, CDK6, and tubulin (Santa Cruz). After incubation with secondary goat-anti-mouse antibodies (Santa Cruz), membranes were developed using ECL (Pierce).
as §2, with “(1, 10” for “(10, 50”, “hsa-miR-3157” for “hsa-miR-129-5p”, “bRAF, total ERK1/2,” for “bRAF,”, “CDK4, BCL2” for “CDK6,”
as §2, with “concentrations” for “concentrations (10, 50 and 100 nM)”, “vemurafenib (PLX-4032, 0.01, 0.1, 1 uM).” for “synthetic hsa-miR-129-5p or BRAF siRNA (100 nM) using RNAiMAX (7.5 μl/well). As control a scrambled miRNA and a non-targeting siRNA pool were included.”, “bRAF, total ERK1/2,” for “bRAF,”, “CDK4, BCL2” for “CDK6,”
A2058 cells were seeded in 6-well plates and transfected with different concentrations (1, 10 and 100 nM) of synthetic hsa-miR-3157-5p or BRAF siRNA using X-TremeGene (Roche, 15 μl/well). As control a scrambled miRNA was included. Proteins were harvested 72 hrs post transfection using RIPA buffer supplemented with HALT™ Phosphatase Inhibitor (Thermo Scientific) and Protease Inhibitor Cocktail (Sigma). Fifteen μg protein was loaded on 10% TGX acrylamide gels (Bio-Rad) and subsequently transferred to PVDF membranes. The membranes were blocked in 5% milk in TBS-T and incubated O/N at 4° C. with primary antibodies to bRAF, total ERK1/2, phosphoERK1/2, BCL2, CDK4 and tubulin (Santa Cruz). After incubation with secondary goat-anti-mouse antibodies (Santa Cruz), membranes were developed using ECL (Pierce).
Transfection was performed as described in Example 4 in 6-well format. Proteins were isolated using RIPA buffer (50 mM Tris pH 8.0, 150 mM NaCL, 1% NP-40, 0.5% Sodium deoxycholate, 0.1% SDS), supplemented with Protease Inhibitor Cocktail (Sigma) and Halt™ Phosphatase Inhibitor Cocktail (Pierce/Thermo Scientific). […]

CDK6 = test: Western immunoblotting of CDK6 protein levels; format: cell-based, human; conditions: A375Hu cells, 72 hrs post transfection, Western blot
Experimental: as §2

Row | Substance | A375Hu-R1 % Viability 10 nM [1] [%] | A375Hu % Viability 10 nM [2] [%] | RPMI-7951 % Viability 10 nM [3] [%] | M249-AR % Viability 30 nM [4] [%] | M249 % Viability 5 nM (M249 melanoma cell line) [%] | A2058 % Viability 10 nM (A2058 melanoma cell line) [%] | phospho-ERK1/2 protein levels (phospho-ERK1/2) | CDK6 protein levels (CDK6)
1 | hsa-miR-200c-5p: mature miRNA mimic, SEQ ID NO 9 CGUCUUACCCAGCAGUGUUUGG (listed as RNA, chemistry not given here) | 66 | 43 | 58 | 58 | 44 | 37 |  | 
2 | hsa-miR-7-5p: mature miRNA mimic, SEQ ID NO 1 UGGAAGACUAGUGAUUUUGUUGU (listed as RNA, chemistry not given here) | 68 | 58 | 65 | 67 | 48 | 51 |  | 
3 | hsa-miR-10b-3p: mature miRNA mimic, SEQ ID NO 2 ACAGAUUCGAUUCUAGGGGAAU (listed as RNA, chemistry not given here) | 59 | 71 | 51 | 86 | 82 | 42 |  | 
4 | hsa-miR-129-5p: mature miRNA mimic, SEQ ID NO 4 CUUUUUGCGGUCUGGGCUUGC (listed as RNA, chemistry not given here) | 48 | 59 | 82 | 64 | 47 | 44 | does not result in pERK down-regulation | significant reduction in CDK6 protein abundance; also recorded: down-regulates
5 | hsa-miR-182-3p: mature miRNA mimic, SEQ ID NO 10 UGGUUCUAGACUUGCCAACUA (listed as RNA, chemistry not given here) | 59 |  | 68 | 83 | 71 | 77 |  | 
6 | hsa-miR-497-5p: mature miRNA mimic, SEQ ID NO 8 CAGCAGCACACUGUGGUUUGU (listed as RNA, chemistry not given here) | 57 | 45 | 68 | 68 | 29 | 53 |  | 
7 | hsa-miR-16-5p: mature miRNA mimic, SEQ ID NO 7 UAGCAGCACGUAAAUAUUGGCG (listed as RNA, chemistry not given here) | 57 | 62 | 68 | 68 | 27 | 39 |  | 
8 | hsa-miR-96-5p: mature miRNA mimic, SEQ ID NO 3 UUUGGCACUAGCACAUUUUUGCU (listed as RNA, chemistry not given here) | 69 | 73 | 53 | 82 | 64 | 33 |  | 
9 | hsa-miR-518b: mature miRNA mimic, SEQ ID NO 5 CAAAGCGCUCCCCUUUAGAGGU (listed as RNA, chemistry not given here) |  | 66 | 53 | 53 | 50 | 44 |  | 

— US10201556B2, “Combination for use in treating diseases or conditions associated with melanoma, or treating diseases or conditions associated with activated B-raf pathway” (InteRNA Technologies B.V., priority 2012, dated 2019)
